Values joined by “and” are separate entries in the source; they are usually repeats but may differ in a detail not shown here. Equal entries are not always repeated.
Legend:
[1] = Ferric reducing antioxidant power (FRAP); conditions: 593 nm, 30 min at 37 °C
Method: The Benzie and Strain method[33] was adopted to assess the ferric reducing antioxidant power (FRAP) for spirooxindoles 6a–p. Absorbance of mixtures was recorded at 593 nm after incubation for 30 min at 37 °C. FRAP results were expressed as μM Fe^2+ equivalents.
FRAP assay is a widely used antioxidant assay that uses antioxidant substances as reducing agents in a redox-linked colorimetric reaction, wherein Fe^3+ is reduced to Fe^2+ at acidic pH that results in a formation of a coloured ferrous-probe complex from a colourless ferric-probe complex. In this assay, the electron donation capacity (reflecting the electron transfer ability) of the examined compounds is evaluated.
In this study, all spirooxindoles 6a–p herein reported were evaluated for their potential FRAP. The results were expressed as µM Fe^2+ equivalents and presented in Table 6, where the higher µM Fe^2+ equivalents value means higher FRAP and subsequently higher antioxidant capacity.

[2] = DPPH radical scavenging assay; conditions: mean ± SD of three experiments; 30 min, 517 nm
Method: The antioxidant potential of spirooxindoles 6a–p against DPPH˙ was evaluated as per previously described procedures by Brand-Williams et al.[32]. DPPH solution was prepared by dissolving 0.024 g DPPH in methanol (100 mL). In 96-well plates, × μL sample and 200-x μL DPPH solution were added. The plate was incubated for 30 min at room temperature in the dark, and finally, absorbance was recorded at 517 nm wavelength. Ascorbic acid was used as positive control. The percent radical scavenging potential was calculated for each compound via the following equation: Scavenging effect (%) = {(Absorbance of control − Absorbance of sample)/Absorbance of control} × 100.
The DPPH (2,2-diphenyl-1-picrylhydrazyl) radical scavenging activity assay is considered as one of the most common and simple methods for measuring the antioxidant ability to trap free radicals. […] Substances that have the potential to act as electron donors result in reduction of this DPPH radical to the corresponding DPPH2 disclosing their antioxidant potential. The principle of the method relies upon measuring the absorbance of the odd electrons of DPPH at 517 nm. The absorbance decreases, in the presence of free radical scavengers, proportional to the decrease of the DPPH radical concentration.

[3] = tested on: non-tumorigenic human breast MCF-10A cell line; test: Cytotoxicity towards non-tumorigenic MCF-10A cells; assay type: cell-based
[4] = tested on: PC-3 prostate cancer cell line; test: MTT anti-proliferative assay, PC-3; assay type: cell-based; conditions: 48 h of incubation
Method: (§1) Spirooxindoles 6a–p were evaluated for their anti-proliferative potency towards HepG2 liver cancer and PC-3 prostate cancer cell lines. Both cells lines were cultured as monolayers in DMEM supplemented with 10% foetal bovine serum (FBS), L-glutamine (2 mM), penicillin (100 U/mL) and streptomycin sulphate (100 µg/mL). Then, cells were sub-cultured with trypsine/EDTA solution, counted with haemocytometer and plated onto 96-well plates (5000 cells/well) and left overnight so as to form a semi-confluent monolayer.
(§2) Spirooxindoles 6a–p were tested for their in vitro anti-HCC activity against HepG2 cell line, and for their anti-prostate cancer activity against PC-3 cell line by the use of MTT reduction assay. The anticancer drug Adriamycin was co-assayed as the positive control.

[5] = tested on: HepG2 hepatocellular carcinoma cell line; test: MTT anti-proliferative assay, HepG2; assay type: cell-based; conditions: 48 h exposure, phase contrast microscopy
[6] = tested on: HepG2 hepatocellular carcinoma cell line; test: MTT anti-proliferative assay, HepG2; assay type: cell-based; conditions: Homo sapiens, 48 h of incubation
Method: as §1, §2

p53 = test: ELISA of p53 in HepG2 cells; assay type: cell-based; conditions: HepG2 treated at IC50 (6.9 µM)
Method: (§3) The levels of the apoptotic markers caspase-3, caspase-9, p53 and Bax, as well as the anti-apoptotic marker Bcl-2 were evaluated by the use of ELISA colorimetric kits per the manufacturer’s instructions, as reported earlier[28]^,[29]. Furthermore, the pro-apoptotic potential of spirooxindole 6a towards HepG2 cells was assessed using FITC Annexin V Apoptosis Detection Kit by flow cytometry, according to the manufacturer’s protocol and referring to the reported procedures[30]^,[31].
(§4) The elevated Bax/Bcl-2 ratio aroused the assessment of the expression levels of the pro-apoptotic active caspase-3, caspase-9 and p53 tumour suppressor protein.

HepG2 cells [7] = test: Cell cycle analysis (PI staining, flow cytometry); assay type: cell-based; conditions: HepG2, 6.9 µM (IC50), 24 h
Method: The samples were analysed by a flow cytometer (BectonDickinson FACSCalibur, BD, USA) and data were analysed using the CellQuest software (Becton Dickinson).
The impact of spirooxindole 6a on the normal cell cycle progression was investigated using flow cytometric analysis of the DNA ploidy in HepG2 cells. […] Alteration of the Pre-G phase and arrest of G2-M phase may imply apoptosis as a potential mechanism for 6a-induced cancer cell death.

caspase-9 = test: ELISA of active caspase-9 in HepG2 cells; assay type: cell-based; conditions: HepG2 treated at IC50 (6.9 µM)
Method: as §3, §4

HepG2 cells [8] = test: Annexin V-FITC/PI apoptosis assay; assay type: cell-based; conditions: HepG2, 6.9 µM (IC50)
Method: as §3

caspase-3 = test: ELISA of active caspase-3 in HepG2 cells; assay type: cell-based; conditions: HepG2 treated at IC50 (6.9 µM)
Method: as §3, §4

Bax = test: ELISA of apoptotic marker Bax in HepG2 cells; assay type: cell-based; conditions: HepG2 treated at IC50 (6.9 µM)
Method: as §3
(§5) The Bax/Bcl-2 ratio is considered as a decisive value that gives a real insight to the overall pro-apoptotic impact of the examined compound.

Bcl-2 = test: ELISA of anti-apoptotic marker Bcl-2 in HepG2 cells; assay type: cell-based; conditions: HepG2 treated at IC50 (6.9 µM)
Method: as §3, §5

## O=C1O[C@H]([C@@H](O)CO)C(O)=C1O [Ascorbic acid, reference compound]
[1]
  FRAP, µM (Fe^2+ Eq.): 13.42 µM (Fe^2+ Eq.)
[2]
  DPPH radical scavenging IC50: 45.89 ± 2.39 mg/L

## N#CC1=C(c2ccccc2)Nc2c(c(-c3cccs3)nn2-c2ccccc2)C12C(=O)Nc1ccc(Cl)cc12 (stereo not shown) [Compound 6e]
[3]
  IC50: 69.7 µM
[4]
  IC50: 13.5 µM
[1]
  FRAP, µM (Fe^2+ Eq.): 10.12 µM (Fe^2+ Eq.)
[5]
  Morphological changes of HepG2 cells: cell rounding, shrinkage and monolayer disruption
[2]
  DPPH radical scavenging IC50: 36.03 ± 1.37 mg/L
[6]
  IC50: 8.4 µM

## Cc1ccc(C2=C(C#N)C3(C(=O)Nc4ccccc43)c3c(-c4cccs4)nn(-c4ccccc4)c3N2)cc1 (stereo not shown) [Compound 6b]
[3]
  IC50: 122 µM
[4]
  IC50: 34.2 µM
[1]
  FRAP, µM (Fe^2+ Eq.): 6.933 µM (Fe^2+ Eq.)
[2]
  DPPH radical scavenging IC50: 113.45 ± 5.59 mg/L
[6]
  IC50: 21 µM

## COc1ccc2c(c1)C1(C(=O)N2)C(C#N)=C(c2ccc(C)cc2)Nc2c1c(-c1cccs1)nn2-c1ccccc1 (stereo not shown) [Compound 6n]
[4]
  IC50: 42.8 µM
[1]
  FRAP, µM (Fe^2+ Eq.): 11.58 µM (Fe^2+ Eq.)
[2]
  DPPH radical scavenging IC50: 46.29 ± 2.52 mg/L
[6]
  IC50: > 50 µM

## N#CC1=C(c2ccc(Cl)cc2)Nc2c(c(-c3cccs3)nn2-c2ccccc2)C12C(=O)Nc1ccc(Br)cc12 (stereo not shown) [Compound 6l]
[4]
  IC50: > 50 µM
[1]
  FRAP, µM (Fe^2+ Eq.): 11.59 µM (Fe^2+ Eq.)
[2]
  DPPH radical scavenging IC50: 41.36 ± 2.17 mg/L
[6]
  IC50: 12.7 µM

## COc1ccc(C2=C(C#N)C3(C(=O)Nc4ccc(OC)cc43)c3c(-c4cccs4)nn(-c4ccccc4)c3N2)cc1 (stereo not shown) [Compound 6o]
[4]
  IC50: > 50 µM
[1]
  FRAP, µM (Fe^2+ Eq.): 11.90 µM (Fe^2+ Eq.)
[2]
  DPPH radical scavenging IC50: 58.82 ± 3.14 mg/L
[6]
  IC50: > 50 µM

## COc1ccc(C2=C(C#N)C3(C(=O)Nc4ccc(Br)cc43)c3c(-c4cccs4)nn(-c4ccccc4)c3N2)cc1 (stereo not shown) [Compound 6k]
[3]
  IC50: 136 µM
[4]
  IC50: 39.1 µM
[1]
  FRAP, µM (Fe^2+ Eq.): 8.499 µM (Fe^2+ Eq.)
[2]
  DPPH radical scavenging IC50: 69.25 ± 4.25 mg/L
[6]
  IC50: 13.2 µM

## COc1ccc(C2=C(C#N)C3(C(=O)Nc4ccccc43)c3c(-c4cccs4)nn(-c4ccccc4)c3N2)cc1 (stereo not shown) [Compound 6c]
[3]
  IC50: 141 µM
[4]
  IC50: 43.7 µM
[1]
  FRAP, µM (Fe^2+ Eq.): 10.32 µM (Fe^2+ Eq.)
[2]
  DPPH radical scavenging IC50: 43.04 ± 2.39 mg/L
[6]
  IC50: 19.1 µM

## COc1ccc(C2=C(C#N)C3(C(=O)Nc4ccc(Cl)cc43)c3c(-c4cccs4)nn(-c4ccccc4)c3N2)cc1 (stereo not shown) [Compound 6g]
[4]
  IC50: > 50 µM
[1]
  FRAP, µM (Fe^2+ Eq.): 7.79 µM (Fe^2+ Eq.)
[2]
  DPPH radical scavenging IC50: 97.47 ± 5.62 mg/L
[6]
  IC50: > 50 µM

## N#CC1=C(c2ccccc2)Nc2c(c(-c3cccs3)nn2-c2ccccc2)C12C(=O)Nc1ccc(Br)cc12 (stereo not shown) [Compound 6i]
[3]
  IC50: 76.9 µM
[4]
  IC50: 17.9 µM
[1]
  FRAP, µM (Fe^2+ Eq.): 11.88 µM (Fe^2+ Eq.)
[5]
  Morphological changes of HepG2 cells: cell rounding, shrinkage and monolayer disruption
[2]
  DPPH radical scavenging IC50: 36.38 ± 2.71 mg/L
[6]
  IC50: 6.3 µM

## N#CC1=C(c2ccccc2)Nc2c(c(-c3cccs3)nn2-c2ccccc2)C12C(=O)Nc1ccccc12 (stereo not shown) [Compound 6a]
[3]
  IC50: 94.6 µM
p53
  p53, folds of control: ~10.03 folds of control and ~10 folds of control
  p53 expression level: 774.5 pg/mL
[4]
  IC50: 11.8 µM
HepG2 cells [7]
  decrease of S phase with respect to control: ~0.37 folds
  increase of G2/M phase related to control: 2.1 folds
  increase of Pre-G phase related to control: 11.9 folds
caspase-9
  Caspase-9, folds of control: ~12.27 folds of control
  Caspase-9 expression level: 26.92 ng/mL
[1]
  FRAP, µM (Fe^2+ Eq.): 11.98 µM (Fe^2+ Eq.)
[5]
  Morphological changes of HepG2 cells: cell rounding, shrinkage and monolayer disruption
HepG2 cells [8]
  total increase in apoptosis with respect to control: about 16.3 folds
HepG2 cells [8]; control 0.33%
  late apoptosis (upper right quadrant), annexin-V positive cells: 14.14%
HepG2 cells [8]; control 0.95%
  early apoptosis (lower right quadrant), annexin-V positive cells: 6.76%
caspase-3
  Caspase-3 expression level: 475.9 pg/mL
Bax
  Bax expression level: 232.2 ng/mL
  Bax, folds of control: 5.7 folds of control
  Bax/Bcl-2 ratio: 92.5
[2]
  DPPH radical scavenging IC50: 29.76 ± 1.82 mg/L
[6]
  IC50: 6.9 µM
Bcl-2
  Bcl-2, folds of control: 0.57 folds of control
  Bcl-2 expression level: 2.51 ng/mL
  down-regulation of Bcl-2 expression compared to control: ~42%

## Cc1ccc(C2=C(C#N)C3(C(=O)Nc4ccc(Br)cc43)c3c(-c4cccs4)nn(-c4ccccc4)c3N2)cc1 (stereo not shown) [Compound 6j]
[3]
  IC50: 146 µM
[4]
  IC50: 26.6 µM
[1]
  FRAP, µM (Fe^2+ Eq.): 10.34 µM (Fe^2+ Eq.)
[2]
  DPPH radical scavenging IC50: 43.42 ± 3.04 mg/L
[6]
  IC50: 9.9 µM

## COc1cccc2c1C(=O)c1c(O)c3c(c(O)c1C2=O)C[C@@](O)(C(=O)CO)C[C@@H]3O[C@H]1C[C@H](N)[C@H](O)[C@H](C)O1 [Adriamycin, reference compound]
[4]
  IC50: 0.62 µM
[6]
  IC50: 0.12 µM

## Cc1ccc(C2=C(C#N)C3(C(=O)Nc4ccc(Cl)cc43)c3c(-c4cccs4)nn(-c4ccccc4)c3N2)cc1 (stereo not shown) [Compound 6f]
[3]
  IC50: 159 µM
[4]
  IC50: 29.3 µM
[1]
  FRAP, µM (Fe^2+ Eq.): 11.36 µM (Fe^2+ Eq.)
[2]
  DPPH radical scavenging IC50: 40.31 ± 2.61 mg/L
[6]
  IC50: 32.7 µM

## COc1ccc2c(c1)C1(C(=O)N2)C(C#N)=C(c2ccccc2)Nc2c1c(-c1cccs1)nn2-c1ccccc1 (stereo not shown) [Compound 6m]
[3]
  IC50: 186 µM
[4]
  IC50: 24.3 µM
[1]
  FRAP, µM (Fe^2+ Eq.): 12.13 µM (Fe^2+ Eq.)
[2]
  DPPH radical scavenging IC50: 28.07 ± 1.63 mg/L
[6]
  IC50: 30.6 µM

## N#CC1=C(c2ccc(Cl)cc2)Nc2c(c(-c3cccs3)nn2-c2ccccc2)C12C(=O)Nc1ccccc12 (stereo not shown) [Compound 6d]
[4]
  IC50: > 50 µM
[1]
  FRAP, µM (Fe^2+ Eq.): 10.99 µM (Fe^2+ Eq.)
[2]
  DPPH radical scavenging IC50: 33.43 ± 1.24 mg/L
[6]
  IC50: 49.1 µM

## N#CC1=C(c2ccc(Cl)cc2)Nc2c(c(-c3cccs3)nn2-c2ccccc2)C12C(=O)Nc1ccc(Cl)cc12 (stereo not shown) [Compound 6h]
[4]
  IC50: > 50 µM
[1]
  FRAP, µM (Fe^2+ Eq.): 11.35 µM (Fe^2+ Eq.)
[2]
  DPPH radical scavenging IC50: 46.29 ± 2.18 mg/L
[6]
  IC50: 19.9 µM

## COc1ccc2c(c1)C1(C(=O)N2)C(C#N)=C(c2ccc(Cl)cc2)Nc2c1c(-c1cccs1)nn2-c1ccccc1 (stereo not shown) [Compound 6p]
[4]
  IC50: > 50 µM
[1]
  FRAP, µM (Fe^2+ Eq.): 11.18 µM (Fe^2+ Eq.)
[2]
  DPPH radical scavenging IC50: 55.05 ± 3.41 mg/L
[6]
  IC50: > 50 µM

Reference: paper PMC7144320, “Antitumor properties of certain spirooxindoles towards hepatocellular carcinoma endowed with antioxidant activity” (Journal of Enzyme Inhibition and Medicinal Chemistry, 2020)
